The values that follow come from US9326513B2, “Fungicidal compositions” (Syngenta Participations AG, priority 2011, dated 2016).

Type in all cases: cell-based
The test system of one assay is Septoria tritici. Description: Septoria tritici (leaf blotch), PDB microtiter plate, visual after 72 hrs. The following applies: single compound.
Assay [1] relates to Monographella nivalis (syn. Microdochium nivale, Fusarium nivale). Description: Monographella nivalis (snow mould, foot rot of cereals), PDB microtiter plate, visual after 72 hrs.
Another assay has as its system Botrytis cinerea. Nature of the assay: Botrytis cinerea (gray mould), PDB microtiter plate, visual after 72 hrs.
Where [2] appears, read: Zymoseptoria tritici, 0.125 ppm.
The mark [3] stands for this setting: Monographella nivalis, applied alone, 0.625 ppm.
The mark [4] stands for this setting: Monographella nivalis, applied alone, 1.25 ppm.
Setting [5] is: Monographella nivalis, applied alone, 2.5 ppm.
Where [6] appears, read: Monographella nivalis, applied alone, 5 ppm.
Where [7] appears, read: Monographella nivalis, applied alone, rate 0.15625 ppm.
[8] abbreviates: Monographella nivalis, applied alone, rate 0.3125 ppm.
Where [9] appears, read: Monographella nivalis, applied alone, rate 0.625 ppm.
The mark [10] stands for this setting: Monographella nivalis, applied alone, rate 1.25 ppm.
[11] abbreviates: Botrytis cinerea, alone, rate 0.625 ppm.
Where [12] appears, read: Botrytis cinerea, alone, rate 1.25 ppm.
Setting [13] is: Botrytis cinerea, alone, rate 2.5 ppm, read-out: Activity (%).
[14] abbreviates: Monographella nivalis, applied alone, 0.0625 ppm.
[15] abbreviates: Monographella nivalis, applied alone, 0.125 ppm.
The mark [16] stands for this setting: Botrytis cinerea, alone, rate 0.0625 ppm, read-out: Activity (%).
The mark [17] stands for this setting: Monographella nivalis, applied alone, rate 2.5 ppm.
The mark [18] stands for this setting: Monographella nivalis, single compound, rate 5 ppm.
The mark [19] stands for this setting: Botrytis cinerea, alone, rate 5 ppm, read-out: Activity (%).
Where [20] appears, read: Botrytis cinerea, alone, rate 10 ppm, read-out: Activity (%).

Like-named read-outs stand apart in the source and are kept apart here.

Compound `O=C(NCCc1ncc(C(F)(F)F)cc1Cl)c1ccccc1C(F)(F)F` [Fluopyram] came in with an inhibition at 0.125 ppm in the assay with Septoria tritici (setting [2]) of 0%. For the same compound, the inhibition at 0.25 ppm in the assay on Septoria tritici (Zymoseptoria tritici, 0.25 ppm, read-out: Activity (%)) turned out to be 50%.
Turning to `CC(C)(C)[C@@H](O)[C@@H](Cc1ccc(Cl)cc1)n1cncn1` (racemic) [Paclobutrazol], the inhibition at 0.625 ppm came out at 0% in assay [1] (setting [3]); 0% in assay [1] (setting [9]); 0% in the assay on Botrytis cinerea (setting [11]); 0% in the assay with Septoria tritici (Zymoseptoria tritici, 0.625 ppm). Besides, the inhibition at 1.25 ppm turned out to be 0% in assay [1] (setting [4]); 0% in assay [1] (setting [10]); 0% with Botrytis cinerea (setting [12]); 0% in the assay on Botrytis cinerea (Botrytis cinerea, single compound, rate 1.25 ppm); 0% in the assay on Septoria tritici (Zymoseptoria tritici, 1.25 ppm). Moreover, the inhibition at 2.5 ppm in assay [1] (setting [5]) was 0%; with Botrytis cinerea (setting [13]) it was 0%; in the assay with Botrytis cinerea (Botrytis cinerea, single compound, rate 2.5 ppm, read-out: Activity (%)) it was 0%. Further, the inhibition at 5 ppm in assay [1] (setting [6]) stood at 0%; with Botrytis cinerea (Botrytis cinerea, single compound, rate 5 ppm, read-out: Activity (%)), 70%; in the assay on Septoria tritici (Zymoseptoria tritici, 5 ppm), 70%. In addition, the inhibition at 10 ppm in assay [1] (Monographella nivalis, applied alone, 10 ppm) was 0%; in the assay on Septoria tritici (Zymoseptoria tritici, 10 ppm), 70%. Also, the inhibition at 0.15625 ppm in assay [1] (setting [7]) amounted to 0%; in the assay on Septoria tritici (Zymoseptoria tritici, 0.15625 ppm) it was 0%. In addition, the inhibition at 0.3125 ppm was 0% in assay [1] (setting [8]) and 20% in the assay on Septoria tritici (Zymoseptoria tritici, 0.3125 ppm). The “Activity (%)” value in the assay with Septoria tritici (5 ppm) worked out at 50%.
Take `CON(C(=O)c1cn(C)nc1C(F)F)C(C)Cc1c(Cl)cc(Cl)cc1Cl` (stereo not drawn) [(VI), 3-(difluoromethyl)-N-methoxy-1-methyl-N-[1-methyl-2-(2,4,6-trichlorophenyl)ethyl]-1H-pyrazole-4-carboxamide, reference compound]: the values for the inhibition at 0.0625 ppm (in assay [1] (setting [14]); in the assay on Botrytis cinerea (setting [16])) were 0% and 70%, respectively. The compound further gave an inhibition at 0.125 ppm in assay [1] (setting [15]) of 50%. The same compound had an inhibition at 0.0078125 ppm in the assay on Botrytis cinerea (Botrytis cinerea, alone, rate 0.0078125 ppm) of 20%. This compound had an inhibition at 0.015625 ppm with Botrytis cinerea (Botrytis cinerea, alone, rate 0.015625 ppm) of 50%. Moreover, in the assay with Botrytis cinerea (Botrytis cinerea, alone, rate 0.03125 ppm, read-out: Activity (%)), the inhibition at 0.03125 ppm is 70%.
Regarding `CC(C)C1C2CCC1c1c(NC(=O)c3cn(C)nc3C(F)F)cccc12` (stereo not drawn) [Isopyrazam], the results for the “Activity (%)” value in the assay on Septoria tritici (0.015625 ppm) and in the assay with Septoria tritici (0.03125 ppm) were 0% and 20%, respectively.
As to `CCCC1COC(Cn2cncn2)(c2ccc(Cl)cc2Cl)O1` (stereo not drawn) [Propiconazole], the inhibition at 0.0625 ppm in assay [1] (setting [14]) was 0%; in assay [1] (Monographella nivalis, applied alone, rate 0.0625 ppm), 0%; in the assay with Botrytis cinerea (setting [16]), 0%. Also, the inhibition at 0.125 ppm worked out at 0% in assay [1] (setting [15]); 0% in assay [1] (Monographella nivalis, applied alone, rate 0.125 ppm); 0% in the assay with Botrytis cinerea (Botrytis cinerea, alone, rate 0.125 ppm); 50% in the assay with Septoria tritici (setting [2]). The inhibition at 0.25 ppm was 0% in assay [1] (Monographella nivalis, applied alone, 0.25 ppm); 0% in assay [1] (Monographella nivalis, applied alone, rate 0.25 ppm); 0% with Botrytis cinerea (Botrytis cinerea, alone, rate 0.25 ppm); 0% in the assay with Botrytis cinerea (Botrytis cinerea, single compound, rate 0.25 ppm). The inhibition at 0.5 ppm in assay [1] (Monographella nivalis, applied alone, 0.5 ppm) was determined as 0%; in the assay with Botrytis cinerea (Botrytis cinerea, alone, rate 0.5 ppm), 50%; in the assay with Botrytis cinerea (Botrytis cinerea, single compound, rate 0.5 ppm), 50%. The compound further showed an inhibition at 1 ppm in assay [1] (Monographella nivalis, applied alone, 1 ppm) of 20%. The compound further showed an inhibition at 0.015625 ppm in assay [1] (Monographella nivalis, applied alone, rate 0.015625 ppm) of 0%. Moreover, the inhibition at 0.03125 ppm in assay [1] (Monographella nivalis, applied alone, rate 0.03125 ppm) turned out to be 0%.
For `CC/C=C\CC1=C(C)CCC1=O` [cis-Jasmone], the “Activity (%)” value in assay [1] (applied alone, 0.625 ppm) was 0%; in assay [1] (applied alone, 1.25 ppm) it was 0%; in assay [1] (applied alone, 2.5 ppm), 0%; in assay [1] (applied alone, 5 ppm) it was 0%; in assay [1] (applied alone, rate 0.15625 ppm) it was 0%; in assay [1] (applied alone, rate 0.3125 ppm) it was 0%. The “Activity (%)” value in assay [1] (applied alone, rate 0.625 ppm) came to 0%; in assay [1] (applied alone, rate 1.25 ppm), 0%; with Botrytis cinerea (alone, rate 0.625 ppm), 0%; in the assay on Botrytis cinerea (alone, rate 1.25 ppm), 0%; in the assay with Botrytis cinerea (alone, rate 2.5 ppm), 0%; in the assay with Botrytis cinerea (alone, rate 5 ppm), 0%.
`CO/C=C(/C(=O)OC)c1ccccc1COc1cccc(C(F)(F)F)n1` [Picoxystrobin]: the “Activity (%)” value with Botrytis cinerea (alone, rate 0.25 ppm) came to 50%; in the assay with Botrytis cinerea (alone, rate 0.5 ppm), 50%; with Botrytis cinerea (alone, rate 1 ppm), 50%; with Botrytis cinerea (alone, rate 2 ppm) it was 50%; with Septoria tritici (0.015625 ppm), 70%; in the assay on Septoria tritici (0.03125 ppm) it was 90%.
For `CS(=O)(=O)c1ccc(C(=O)C2C(=O)CCCC2=O)c([N+](=O)[O-])c1` [Mesotrione], the inhibition at 2.5 ppm (in assay [1] (setting [5]); in assay [1] (setting [17]); in the assay with Botrytis cinerea (setting [13])) was 0% each time. Further, the inhibition at 5 ppm (in assay [1] (setting [6]); in assay [1] (setting [18]); with Botrytis cinerea (setting [19])) was 0% each time. Besides, the inhibition at 0.078125 ppm in assay [1] (Monographella nivalis, applied alone, rate 0.078125 ppm) stood at 0%. The same compound showed an inhibition at 0.15625 ppm in assay [1] (setting [7]) of 0%. Also, the inhibition at 0.3125 ppm in assay [1] (setting [8]) was 0%. Also, the inhibition at 0.625 ppm (in assay [1] (setting [9]); in the assay with Botrytis cinerea (setting [11])) was 0% throughout. Moreover, the inhibition at 1.25 ppm (in assay [1] (setting [10]); with Botrytis cinerea (setting [12])) was 0% each time. Further, the inhibition at 10 ppm in assay [1] (Monographella nivalis, single compound, rate 10 ppm) came out at 0%; with Botrytis cinerea (setting [20]) it was 0%. The compound also yielded an inhibition at 20 ppm in assay [1] (Monographella nivalis, single compound, rate 20 ppm) of 0%.
In the case of `CCOC(=O)C1CC(=O)C(=C(O)C2CC2)C(=O)C1` (stereo not drawn) [Trinexapacethyl], the inhibition at 0.625 ppm in assay [1] (setting [3]) and in assay [1] (setting [9]) was 0% each time. The inhibition at 1.25 ppm (in assay [1] (setting [4]); in assay [1] (setting [10]); with Botrytis cinerea (setting [12])) was 0% throughout. For the same compound, the inhibition at 2.5 ppm (in assay [1] (setting [5]); in assay [1] (setting [17]); in the assay with Botrytis cinerea (setting [13])) was 0% throughout. The inhibition at 5 ppm (in assay [1] (setting [6]); with Botrytis cinerea (setting [19])) was 0% each time. This compound came in with an inhibition at 0.12625 ppm in assay [1] (Monographella nivalis, applied alone, rate 0.12625 ppm) of 0%. Moreover, in assay [1] (setting [8]), the inhibition at 0.3125 ppm was 0%. Moreover, the inhibition at 10 ppm with Botrytis cinerea (setting [20]) is 0%. Also, the inhibition at 20 ppm with Botrytis cinerea (Botrytis cinerea, alone, rate 20 ppm, read-out: Activity (%)) was found to be 0%.
Turning to `CN1COCN(Cc2cnc(Cl)s2)/C1=N\[N+](=O)[O-]` [Thiamethoxam], the inhibition at 0.3125 ppm in assay [1] (setting [8]) came out at 0%. Moreover, the inhibition at 0.625 ppm (in assay [1] (setting [9]); in the assay with Botrytis cinerea (setting [11])) was 0% throughout. In addition, the inhibition at 2.5 ppm (in assay [1] (setting [17]); with Botrytis cinerea (setting [13])) was 0% throughout. In assay [1] (Monographella nivalis, applied alone, rate 5 ppm), the inhibition at 5 ppm worked out at 0%. Moreover, in the assay on Botrytis cinerea (setting [12]), the inhibition at 1.25 ppm was determined as 0%.
Turning to `Cc1nn(C)c(F)c1C(=O)Nc1ccccc1C(C)CC(C)C` (stereo not drawn) [Penflufen], the “Activity (%)” value in assay [1] (applied alone, 0.5 ppm) was determined as 0%; in assay [1] (applied alone, 1 ppm) it was 20%; in assay [1] (applied alone, rate 0.5 ppm) it was 0%; in assay [1] (applied alone, rate 1 ppm), 20%; in the assay with Septoria tritici (0.125 ppm) it was 0%; in the assay on Septoria tritici (0.25 ppm), 20%. In addition, the “Activity (%)” value in the assay on Septoria tritici (0.5 ppm) is recorded as 70%.
`CP(=O)(O)CCC(N)C(=O)O` (stereo not drawn) [Glufosinate] gave an inhibition at 0.3125 ppm in assay [1] (setting [8]) of 0%. The inhibition at 0.625 ppm in assay [1] (setting [9]) is 0%. The inhibition at 1.25 ppm in assay [1] (setting [10]) was 0%. The inhibition at 2.5 ppm in assay [1] (setting [17]) came to 0%; with Botrytis cinerea (Botrytis cinerea, read-out: Activity (%), alone, rate 2.5 ppm) it was 0%. The inhibition at 5 ppm came to 0% in assay [1] (setting [18]) and 0% in the assay with Botrytis cinerea (Botrytis cinerea, read-out: Activity (%), alone, rate 5 ppm). Also, in the assay with Botrytis cinerea (Botrytis cinerea, read-out: Activity (%), alone, rate 10 ppm), the inhibition at 10 ppm was found to be 0%. Besides, the inhibition at 20 ppm in the assay on Botrytis cinerea (Botrytis cinerea, read-out: Activity (%), alone, rate 20 ppm) is 0%.
In the case of `Cn1cc(C(=O)Nc2ccccc2-c2cc(F)c(F)c(F)c2)c(C(F)F)n1` [Fluxapyroxad], the “Activity (%)” value with Botrytis cinerea (alone, rate 0.015625 ppm) is on record as 20%; in the assay on Botrytis cinerea (alone, rate 0.0625 ppm), 50%; with Botrytis cinerea (alone, rate 0.125 ppm), 70%; with Septoria tritici (0.015625 ppm), 0%; in the assay with Septoria tritici (0.03125 ppm), 0%; in the assay with Septoria tritici (0.0625 ppm), 20%.
